Source: ChEMBL document CHEMBL1157371, “Prevalence, characteristics, and molecular epidemiology of macrolide and fluoroquinolone resistance in clinical isolates of Streptococcus pneumoniae at five tertiary-care hospitals in Korea” (2007)
Converted amounts (≈) assume the structure as drawn.

Key:
Format in all cases: functional
Streptococcus pneumoniae [1] = test: Antibacterial activity against erythromycin-resistant Streptococcus pneumoniae isolates assessed as percent resistant isolates by broth microdilution method
Streptococcus pneumoniae [2] = test: Antibacterial activity against erythromycin-resistant Streptococcus pneumoniae isolates by broth microdilution method
Streptococcus pneumoniae [3] = test: Antibacterial activity against erythromycin-resistant Streptococcus pneumoniae isolates assessed as percent susceptible isolates by broth microdilution method
Streptococcus pneumoniae [4] = test: Antibacterial activity against erythromycin-resistant Streptococcus pneumoniae isolate-8 with parE Ile460Val mutation by broth microdilution method
Streptococcus pneumoniae [5] = test: Antibacterial activity against erythromycin-resistant Streptococcus pneumoniae isolate-2 with gyrA Ser81Phe, Ser114Gly, ParC Ser52Gly, Ser79Phe, Asn91Asp and parE Ile460Val mutation by broth microdilution method
Streptococcus pneumoniae [6] = test: Antibacterial activity against erythromycin-resistant Streptococcus pneumoniae isolate-4 with gyrA Ser81Phe, ParC Lys137Asn and parE Ile460Val, Asp435Asn mutation by broth microdilution method
Streptococcus pneumoniae [7] = test: Antibacterial activity against erythromycin-resistant Streptococcus pneumoniae isolate-3 with ParC Ser79Tyr and parE Ile460Val mutation by broth microdilution method
Streptococcus pneumoniae [8] = test: Antibacterial activity against erythromycin-resistant Streptococcus pneumoniae isolate-6 with parE Ile460Val mutation by broth microdilution method
Streptococcus pneumoniae [9] = test: Antibacterial activity against erythromycin-resistant Streptococcus pneumoniae isolate-9 with parC Asn94ser and parE Ile460Val mutation by broth microdilution method
Streptococcus pneumoniae [10] = test: Antibacterial activity against erythromycin-resistant Streptococcus pneumoniae isolate-7 with parE Ile460Val mutation by broth microdilution method
Streptococcus pneumoniae [11] = test: Antibacterial activity against erythromycin-resistant Streptococcus pneumoniae isolate-1 with gyrA Glu85Lys, ParC Ser79Phe and parE Ile460Val mutation by broth microdilution method
Streptococcus pneumoniae [12] = test: Antibacterial activity against erythromycin-resistant Streptococcus pneumoniae isolate-5 with ParC Ser79Tyr, Lys137Asn and parE Ile460Val mutation by broth microdilution method

Question: What does the source list for `CC1(C)S[C@@H]2[C@H](NC(=O)[C@H](N)c3ccc(O)cc3)C(=O)N2[C@H]1C(=O)O` [AMOXICILLIN]?
Answer: Activity (Streptococcus pneumoniae [1]): 33.2%; MIC50 (Streptococcus pneumoniae [2]): 4 µg/mL (≈ 10.9 µM); MIC90 (Streptococcus pneumoniae [2]): 16 µg/mL (≈ 43.8 µM); Percent susceptible isolates (Streptococcus pneumoniae [3]): 40.9%

Question: `CO/N=C(\C(=O)N[C@@H]1C(=O)N2C(C(=O)O)=C(COC(C)=O)CS[C@H]12)c1csc(N)n1` [CEFOTAXIME] was tested. Which Activity (Streptococcus pneumoniae [1]) did it give?
Answer: 3.4%

Question: What about the MIC50 (Streptococcus pneumoniae [2]) of the same molecule?
Answer: 1 µg/mL (≈ 2.2 µM)

Question: What about the MIC90 (Streptococcus pneumoniae [2]) of the same molecule?
Answer: 2 µg/mL (≈ 4.39 µM)

Question: What about the Percent susceptible isolates (Streptococcus pneumoniae [3]) of the same molecule?
Answer: 78.7%

Question: How did the Activity (Streptococcus pneumoniae [1]) turn out when `CO/N=C(\C(=O)N[C@@H]1C(=O)N2C(C(=O)O)=C(CSc3nc(=O)c(O)nn3C)CS[C@H]12)c1csc(N)n1` [CEFTRIAXONE] was run?
Answer: 3.4%

Question: What about the MIC50 (Streptococcus pneumoniae [2]) of the same molecule?
Answer: 1 µg/mL (≈ 1.8 µM)

Question: And the MIC90 (Streptococcus pneumoniae [2])?
Answer: 2 µg/mL (≈ 3.61 µM)

Question: What about the Percent susceptible isolates (Streptococcus pneumoniae [3]) of the same molecule?
Answer: 76.2%

Question: Which results are given for `CC[C@H]1OC(=O)[C@H](C)[C@@H](O[C@H]2C[C@@](C)(OC)[C@@H](O)[C@H](C)O2)[C@H](C)[C@@H](O[C@@H]2O[C@H](C)C[C@H](N(C)C)[C@H]2O)[C@](C)(OC)C[C@@H](C)C(=O)[C@H](C)[C@@H](O)[C@]1(C)O` [CLARITHROMYCIN]?
Answer: Activity (Streptococcus pneumoniae [1]): 72.8%; MIC50 (Streptococcus pneumoniae [2]): 64 µg/mL (≈ 85.6 µM); MIC90 (Streptococcus pneumoniae [2]): ≥ 128 µg/mL; Percent susceptible isolates (Streptococcus pneumoniae [3]): 23.4%

Question: Which Activity (Streptococcus pneumoniae [1]) does the source give for `CC[C@H]1OC(=O)[C@H](C)[C@@H](O[C@H]2C[C@@](C)(OC)[C@@H](O)[C@H](C)O2)[C@H](C)[C@@H](O[C@@H]2O[C@H](C)C[C@H](N(C)C)[C@H]2O)[C@](C)(O)C[C@@H](C)C(=O)[C@H](C)[C@@H](O)[C@]1(C)O` [ERYTHROMYCIN] here?
Answer: 80%

Question: What about the MIC50 (Streptococcus pneumoniae [2]) of the same molecule?
Answer: 4 µg/mL (≈ 5.45 µM)

Question: What about the MIC90 (Streptococcus pneumoniae [2]) of the same molecule?
Answer: ≥ 128 µg/mL

Question: And the Percent susceptible isolates (Streptococcus pneumoniae [3])?
Answer: 20%

Question: With `C[C@H]1COc2c(N3CCN(C)CC3)c(F)cc3c(=O)c(C(=O)O)cn1c23.C[C@H]1COc2c(N3CCN(C)CC3)c(F)cc3c(=O)c(C(=O)O)cn1c23.O` [LEVOFLOXACIN] as the molecule, how does the MIC (Streptococcus pneumoniae [4]) read?
Answer: 0.064 µg/mL

Question: What about the MIC (Streptococcus pneumoniae [5]) of the same molecule?
Answer: 0.008 µg/mL

Question: What about the Activity (Streptococcus pneumoniae [1]) of the same molecule?
Answer: 3%

Question: What about the MIC (Streptococcus pneumoniae [6]) of the same molecule?
Answer: 0.008 µg/mL

Question: And the MIC (Streptococcus pneumoniae [7])?
Answer: 0.064 µg/mL

Question: What about the MIC (Streptococcus pneumoniae [8]) of the same molecule?
Answer: 0.008 µg/mL

Question: And the MIC50 (Streptococcus pneumoniae [2])?
Answer: 1 µg/mL

Question: What about the MIC90 (Streptococcus pneumoniae [2]) of the same molecule?
Answer: 2 µg/mL

Question: And the Percent susceptible isolates (Streptococcus pneumoniae [3])?
Answer: 96.2%

Question: What about the MIC (Streptococcus pneumoniae [9]) of the same molecule?
Answer: 0.004 µg/mL

Question: What about the MIC (Streptococcus pneumoniae [10]) of the same molecule?
Answer: 0.064 µg/mL

Question: And the MIC (Streptococcus pneumoniae [11])?
Answer: 0.032 µg/mL

Question: What about the MIC (Streptococcus pneumoniae [12]) of the same molecule?
Answer: 0.004 µg/mL

Question: With `CC(=O)NC[C@H]1CN(c2ccc(N3CCOCC3)c(F)c2)C(=O)O1` [LINEZOLID] as the molecule, how does the Activity (Streptococcus pneumoniae [1]) read?
Answer: 0%

Question: What about the MIC50 (Streptococcus pneumoniae [2]) of the same molecule?
Answer: 0.5 µg/mL (≈ 1.48 µM)

Question: And the MIC90 (Streptococcus pneumoniae [2])?
Answer: 1 µg/mL (≈ 2.96 µM)

Question: What about the Percent susceptible isolates (Streptococcus pneumoniae [3]) of the same molecule?
Answer: 100%

Question: Which Activity (Streptococcus pneumoniae [1]) does the source give for `COc1c(N2C[C@@H]3CCCN[C@@H]3C2)c(F)cc2c(=O)c(C(=O)O)cn(C3CC3)c12` [MOXIFLOXACIN] here?
Answer: 1.7%

Question: And the Percent susceptible isolates (Streptococcus pneumoniae [3])?
Answer: 97.9%

Question: For `CN(C)[C@@H]1C(O)=C(C(N)=O)C(=O)[C@@]2(O)C(O)=C3C(=O)c4c(O)cccc4[C@@](C)(O)[C@H]3C[C@@H]12` [TETRACYCLINE], which Activity (Streptococcus pneumoniae [1]) is on record?
Answer: 81.3%

Question: And the MIC50 (Streptococcus pneumoniae [2])?
Answer: 32 µg/mL (≈ 72 µM)

Question: And the MIC90 (Streptococcus pneumoniae [2])?
Answer: 64 µg/mL (≈ 144 µM)

Question: What about the Percent susceptible isolates (Streptococcus pneumoniae [3]) of the same molecule?
Answer: 18.3%

Question: Which results are given for `CN[C@H](CC(C)C)C(=O)N[C@H]1C(=O)N[C@@H](CC(N)=O)C(=O)N[C@H]2C(=O)N[C@H]3C(=O)N[C@H](C(=O)N[C@H](C(=O)O)c4cc(O)cc(O)c4-c4cc3ccc4O)[C@H](O)c3ccc(c(Cl)c3)Oc3cc2cc(c3O[C@@H]2O[C@H](CO)[C@@H](O)[C@H](O)[C@H]2O[C@H]2C[C@](C)(N)[C@H](O)[C@H](C)O2)Oc2ccc(cc2Cl)[C@H]1O` [VANCOMYCIN]?
Answer: Activity (Streptococcus pneumoniae [1]): 0%; MIC50 (Streptococcus pneumoniae [2]): 0.25 µg/mL (≈ 0.173 µM); MIC90 (Streptococcus pneumoniae [2]): 0.25 µg/mL (≈ 0.173 µM); Percent susceptible isolates (Streptococcus pneumoniae [3]): 100%
